Data reported in PubChem BioAssay AID248 (DTP/NCI, 2004).
Several values for one entry are separate records, joined by “and”; a condition that tells them apart may be missing. Equal entries are not always repeated. Toxic doses and inconclusive results are not listed. No stated cut-off is given here; in the data, active means T/C of 150% or more; inactive means T/C below 125%.

Tested on: L1210 leukemia ip in BDF1 mice, survival T/C
Assay: NCI In Vivo Anticancer Drug Screen. Data for tumor model L1210 Leukemia (intraperitoneal) in B6D2F1 (BDF1) mice
Settings: endpoint: mean survival time, higher = longer survival
Method in brief: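 Tumor cells were implanted, animals were treated, and survival was followed. The result divides the treated measurement by the vehicle-control measurement.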

[1] = dose: 100.0 mg/kg/injection, schedule: Q04DX003 (ip), vehicle: saline with Tween-80
[2] = dose: 200.0 mg/kg/injection, schedule: Q04DX003 (ip), vehicle: saline with Tween-80
[3] = dose: 400.0 mg/kg/injection, schedule: Q04DX003 (ip), vehicle: saline with Tween-80
[4] = dose: 100.0 mg/kg/injection, schedule: Q01DX009 (ip), vehicle: Klucel (hydroxypropylcellulose) (HPC)
[5] = dose: 200.0 mg/kg/injection, schedule: Q01DX009 (ip), vehicle: Klucel (hydroxypropylcellulose) (HPC)
[6] = dose: 400.0 mg/kg/injection, schedule: Q01DX009 (ip), vehicle: Klucel (hydroxypropylcellulose) (HPC)
[7] = dose: 100.0 mg/kg/injection, schedule: Q04DX003 (ip), vehicle: Klucel (hydroxypropylcellulose) (HPC)
[8] = dose: 200.0 mg/kg/injection, schedule: Q04DX003 (ip), vehicle: Klucel (hydroxypropylcellulose) (HPC)
[9] = dose: 25.0 mg/kg/injection, schedule: Q04DX003 (ip), vehicle: saline with Tween-80
[10] = dose: 50.0 mg/kg/injection, schedule: Q04DX003 (ip), vehicle: saline with Tween-80
[11] = dose: 100.0 mg/kg/injection, schedule: Q01DX009 (ip), vehicle: saline with Tween-80
[12] = dose: 200.0 mg/kg/injection, schedule: Q01DX009 (ip), vehicle: saline with Tween-80
[13] = dose: 100.0 mg/kg/injection, schedule: Q01DX009 (ip), vehicle: saline
[14] = dose: 200.0 mg/kg/injection, schedule: Q01DX009 (ip), vehicle: saline
[15] = dose: 400.0 mg/kg/injection, schedule: Q01DX009 (ip), vehicle: saline
[16] = dose: 50.0 mg/kg/injection, schedule: Q01DX001 (ip), vehicle: saline
[17] = dose: 100.0 mg/kg/injection, schedule: Q01DX001 (ip), vehicle: saline
[18] = dose: 200.0 mg/kg/injection, schedule: Q01DX001 (ip), vehicle: saline
[19] = dose: 400.0 mg/kg/injection, schedule: Q01DX001 (ip), vehicle: saline
[20] = dose: 400.0 mg/kg/injection, schedule: Q04DX003 (ip), vehicle: Klucel (hydroxypropylcellulose) (HPC)

Measured: T/C

Cc1ccccc1OC(=O)c1ccccc1
inactive: [1] 107 % of control | [2] 104 % of control | [3] 104 % of control

COc1cc(OC)c(NC(=O)C2CC2)cc1Cl
inactive: [4] 110 % of control | [5] 104 % of control | [6] 110 % of control

CC(C)c1ccc(/C=N\NC(=O)N/N=C/c2ccc(C(C)C)cc2)cc1
inactive: [7] 93 % of control | [8] 88 % of control

NC(=O)NN=C1CCC(CC2CCCCC2)CC1 (stereo unspecified)
inactive: [9] 102 % of control | [10] 102 % of control

FC(F)(F)C(F)(F)c1nc2nc(Cl)c(Cl)nc2[nH]1
inactive: dose: 50.0 mg/kg/injection, schedule: Q01DX009 (ip), vehicle: other 106 % of control | dose: 100.0 mg/kg/injection, schedule: Q01DX009 (ip), vehicle: other 92 % of control | dose: 100.0 mg/kg/injection, schedule: Q04DX003 (ip), vehicle: other 120 % of control | dose: 132.0 mg/kg/injection, schedule: Q04DX003 (ip), vehicle: other 94 % of control | dose: 200.0 mg/kg/injection, schedule: Q04DX003 (ip), vehicle: other 114 % of control

O=C(Nc1cccnc1)c1ccccc1
inactive: dose: 6.25 mg/kg/injection, schedule: Q04DX003 (ip), vehicle: saline with Tween-80 92 % of control | dose: 12.5 mg/kg/injection, schedule: Q04DX003 (ip), vehicle: saline with Tween-80 97 % of control | [9] 99 % of control

CCC1(C)CC=C2C(=CCC3C(C)(CO)CCCC23C)C1 (stereo unspecified)
inactive: dose: 50.0 mg/kg/injection, schedule: Q04DX002 (ip), vehicle: other 104 % of control | dose: 100.0 mg/kg/injection, schedule: Q04DX002 (ip), vehicle: other 93 % of control | dose: 200.0 mg/kg/injection, schedule: Q04DX002 (ip), vehicle: other 96 % of control

COc1cc(/C=N\N=C\c2ccc(O)c(OC)c2)ccc1O
inactive: [1] 100 % of control | [2] 94 % of control | [3] 93 % of control

CC(C)(C)c1ccc(O)c(C(C)(C)C)c1
inactive: dose: 50.0 mg/kg/injection, schedule: Q01DX009 (ip), vehicle: saline with Tween-80 100 % of control | [11] 96 % of control | [1] 91 % of control | [12] 97 % of control | [2] 95 % of control

CC(=N)/C(C(=O)NC1CCCCC1)=C(/C)O
inactive: [13] 101 % of control | dose: 100.0 mg/kg/injection, schedule: Q04DX003 (ip), vehicle: saline 104 % of control | [14] 103 % of control | dose: 200.0 mg/kg/injection, schedule: Q04DX003 (ip), vehicle: saline 109 % of control | [15] 93 % of control | dose: 400.0 mg/kg/injection, schedule: Q04DX003 (ip), vehicle: saline 96 % of control

Cc1cc(C)c(C(=O)O)c(O)c1
inactive: dose: 200.0 mg/kg/injection, schedule: Q01DX001 (ip), vehicle: carboxymethylcellulose (CMC) 93 % of control

CCOC(C)C(/C=N/Nc1ccccc1)=N\Nc1ccccc1 (stereo unspecified)
inactive: dose: 15.0 mg/kg/injection, schedule: Q01DX Z (ip), vehicle: carboxymethylcellulose (CMC) 98 % of control | dose: 30.0 mg/kg/injection, schedule: Q01DX Z (ip), vehicle: carboxymethylcellulose (CMC) 97 % of control | dose: 60.0 mg/kg/injection, schedule: Q01DX Z (ip), vehicle: carboxymethylcellulose (CMC) 97 % of control | dose: 120.0 mg/kg/injection, schedule: Q01DX Z (ip), vehicle: carboxymethylcellulose (CMC) 92 % of control

COc1ccc(C(=O)O)nc1C
inactive: dose: 75.0 mg/kg/injection, schedule: Q01DX001 (ip), vehicle: acetone 98 % of control | dose: 150.0 mg/kg/injection, schedule: Q01DX001 (ip), vehicle: acetone 101 % of control | dose: 300.0 mg/kg/injection, schedule: Q01DX001 (ip), vehicle: acetone 98 % of control

CCO/N=C1\C(C)(C)C(C)(C)C(C)(C)C1(C)SS(=O)(=O)O (stereo unspecified)
inactive: dose: 75.0 mg/kg/injection, schedule: Q04DX002 (ip), vehicle: saline 101 % of control | dose: 150.0 mg/kg/injection, schedule: Q04DX002 (ip), vehicle: saline 96 % of control | dose: 300.0 mg/kg/injection, schedule: Q04DX002 (ip), vehicle: saline 93 % of control

O=C(c1ccccc1[N+](=O)[O-])C(Br)C(Br)c1ccc2c(c1)OCO2 (stereo unspecified)
inactive: [11] 97 % of control and 87 % of control | [12] 94 % of control and 95 % of control | dose: 400.0 mg/kg/injection, schedule: Q01DX009 (ip), vehicle: saline with Tween-80 97 % of control

Fc1cccc(N2CCOCC2)c1
inactive: [16] 101 % of control | [17] 93 % of control | [18] 101 % of control

CCOC(=O)C[n+]1ccc(C(=O)c2cc3ccccc3[nH]2)cc1
inactive: [11] 93 % of control | [12] 92 % of control

ClC1=CC2CCC(C2)C1Cl (stereo unspecified)
inactive: [13] 106 % of control | dose: 100.0 mg/kg/injection, schedule: Q04DX003 (ip), vehicle: acetone 88 % of control | [14] 102 % of control | dose: 200.0 mg/kg/injection, schedule: Q04DX003 (ip), vehicle: acetone 88 % of control | [15] 103 % of control | dose: 400.0 mg/kg/injection, schedule: Q04DX003 (ip), vehicle: acetone 90 % of control

CC(=O)Nn1cnc2c(SCc3ccccc3)ncnc21
inactive: dose: 100.0 mg/kg/injection, schedule: Q01DX001 (ip), vehicle: other 96 % of control | dose: 177.0 mg/kg/injection, schedule: Q01DX001 (ip), vehicle: other 105 % of control | dose: 200.0 mg/kg/injection, schedule: Q01DX001 (ip), vehicle: other 100 % of control | dose: 266.0 mg/kg/injection, schedule: Q01DX001 (ip), vehicle: other 115 % of control

CCOC(=O)C1(C(=O)OCC)CCC(OCC)N1C(=O)c1ccccc1[N+](=O)[O-] (stereo unspecified)
inactive: dose: 25.0 mg/kg/injection, schedule: Q04DX003 (ip), vehicle: Klucel (hydroxypropylcellulose) (HPC) 94 % of control | dose: 50.0 mg/kg/injection, schedule: Q04DX003 (ip), vehicle: Klucel (hydroxypropylcellulose) (HPC) 99 % of control | [7] 89 % of control

O=C(Oc1ccc(N=Cc2ccccc2)cc1)Oc1ccc(N=Cc2ccccc2)cc1
inactive: [17] 86 % of control | [18] 86 % of control | [19] 95 % of control

COC1=C(c2ccccc2)C(=O)CCc2ccccc21
inactive: [7] 97 % of control | [8] 106 % of control | [20] 97 % of control

CC1C(=O)OC(C)(C)C1(C)C (stereo unspecified)
inactive: [9] 108 % of control | [10] 96 % of control | [1] 96 % of control

Cc1ccc(Cl)cc1NC(=O)C(Cl)Cl
inactive: [4] 92 % of control | [5] 89 % of control | [6] 90 % of control

Cc1cc(C)c2c(=O)[nH]c(=S)[nH]c2n1
inactive: [16] 102 % of control | [17] 108 % of control | [4] 95 % of control | [18] 102 % of control | [5] 91 % of control | [19] 98 % of control | [6] 98 % of control

Brc1cccc[n+]1-c1ccc2cc(-[n+]3ccccc3Br)ccc2c1
inactive: dose: 9.38 mg/kg/injection, schedule: Q01DX001 (ip), vehicle: other 100 % of control

Cc1nc(N)[nH]c(=O)c1CCCNCc1ccccc1
inactive: dose: 100.0 mg/kg/injection, schedule: Q01DX001 (ip), vehicle: Klucel (hydroxypropylcellulose) (HPC) 96 % of control | dose: 200.0 mg/kg/injection, schedule: Q01DX001 (ip), vehicle: Klucel (hydroxypropylcellulose) (HPC) 94 % of control | dose: 400.0 mg/kg/injection, schedule: Q01DX001 (ip), vehicle: Klucel (hydroxypropylcellulose) (HPC) 94 % of control

CCc1ccccc1NC(=O)Nc1ccccc1C
inactive: [4] 87 % of control | [7] 88 % of control | [5] 93 % of control | [8] 89 % of control | [6] 87 % of control | [20] 93 % of control
